Results taken from US10398672B2, “Methods and compositions for targeting cancer stem cells” (Whitehead Institute for Biomedical Research, priority 2014, dated 2019).

Tested on: NAMEC cells transformed with Ras
Conditions: mouse, in vivo

In the case of cholera toxin, the “loss of tumor-initiating ability compared to untreated NAMEC cells” value is reported as 100 fold.
